Source: patent EP4631940A1, “COMPOUND TARGETING PAN-KRAS PROTEIN DEGRADATION AGENT AND USE THEREOF” (Betta Pharmaceuticals Co., Ltd., priority 2022, dated 2024)

How the values were obtained:
AGS = assay: Cell proliferation experiment (CellTiter-Glo); type: cell-based; conditions: Homo sapiens, AGS, 96 h, read-out: IC50(nM) AGS
KRAS G12D [1] = biological target: T1, KRAS G12D (Homo sapiens, UniProt P01116, G12D)
KRAS G12D [2] = biological target: T1, KRAS G12D; assay: cell-based; conditions: AGS
SW620 = assay: Cell proliferation experiment (CellTiter-Glo); type: cell-based; conditions: Homo sapiens, SW-620, 96 h, read-out: IC50(nM) SW620

T1 sequence (P01116 1-188 isoform P01116-2 G12D): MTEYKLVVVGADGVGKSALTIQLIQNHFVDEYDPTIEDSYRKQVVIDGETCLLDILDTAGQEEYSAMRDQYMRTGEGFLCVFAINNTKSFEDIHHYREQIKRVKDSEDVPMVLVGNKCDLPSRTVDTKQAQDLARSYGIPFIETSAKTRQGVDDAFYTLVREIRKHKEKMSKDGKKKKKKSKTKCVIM

| SMILES | IC50 (AGS) [nM] | DC50 (KRAS G12D [1]) [nM] | Dmax (KRAS G12D [2]) [%] | IC50 (SW620) [nM] |
| --- | --- | --- | --- | --- |
| CCc1c(F)ccc2cc(O)cc(-c3ncc4c(N5CCC[C@@](C)(O)C5)nc(OC[C@]56CCCN5[C@@H](COc5ncc(-c7cn([C@H](C(=O)N8C[C@H](O)C[C@H]8C(=O)N[C@@H](C)c8ccc(-c9scnc9C)cc8)C(C)C)nn7)cn5)CC6)nc4c3F)c12 [Compound 158, (2S,4R)-1-((S)-2-(4-(2-(((3R,7aR)-7a-(((7-(8-ethyl-7-fluoro-3-hydroxynaphthalen-1-yl)-8-fluoro-4-((R)-3-hydroxy-3-methylpiperidin-1-yl)pyrido[4,3-d]pyrimidin-2-yl)oxy)methyl)cyclopropyl)hexahydro-1H-pyrrolizin-3-yl)methoxy)pyrimidin-5-yl)-1H-1,2,3-triazol-1-yl)-3-methylbutanoyl)-4-hydroxy-N-(((S)-1-(4-(4-methylthiazol-5-yl)phenyl)ethyl)pyrrolidine-2-carboxamide] | 18 | 4.1 | 95 |  |
| CCc1c(F)ccc2cc(O)cc(-c3ncc4c(N5CCC[C@@](C)(O)C5)nc(OCC5(CN6CCC(c7cn([C@H](C(=O)N8C[C@H](O)C[C@H]8C(=O)N[C@@H](C)c8ccc(-c9scnc9C)cc8)C(C)C)nn7)CC6)CC5)nc4c3F)c12 [Compound 131, (2S,4R)-1-((S)-2-(4-(1-((((7-(8-ethyl-7-fluoro-3-hydroxynaphthalen-1-yl)-8-fluoro-4-((R)-3-hydroxy-3-methylpiperidin-1-yl)pyrido[4,3-d]pyrimidin-2-yl)oxy)methyl)cyclopropyl)methyl)piperidin-4-yl)-1H-1,2,3-triazol-1-yl)-3-methylbutanoyl)-4-hydroxy-N-(((S)-1-(4-(4-methylthiazol-5-yl)phenyl)ethyl)pyrrolidine-2-carboxamide] | 34 | 18 | 95 |  |
| CCc1c(F)ccc2cc(O)cc(-c3ncc4c(N5CCC[C@@](C)(O)C5)nc(OCC5(CN6CC(N7CCN(c8cc([C@H](C(=O)N9C[C@H](O)C[C@H]9C(=O)N[C@@H](C)c9ccc(-c%10scnc%10C)cc9)C(C)C)on8)CC7)C6)CC5)nc4c3F)c12 [Compound 116] | 27 | 30 | 95 |  |
| CCc1c(F)ccc2cc(O)cc(-c3ncc4c(N5CCC[C@@](C)(O)C5)nc(OCC5(CN6CCC7(CC6)CC(Oc6cc([C@H](C(=O)N8C[C@H](O)C[C@H]8C(=O)N[C@@H](C)c8ccc(-c9scnc9C)cc8)C(C)C)on6)C7)CC5)nc4c3F)c12 [Compound 150] | 11 | 14 | 95 |  |
| C=C1CN2[C@H](COC(=O)N3CCC4(CC3)CC(CNC(=O)C[C@H](NC(=O)[C@@H]3C[C@@H](O)CN3C(=O)C(c3cc(C)no3)C(C)C)c3ccc(-c5scnc5C)cc3)C4)CC[C@@]2(COc2nc(N3CCC[C@@](C)(O)C3)c3cnc(-c4cc(O)cc5ccc(F)c(CC)c45)c(F)c3n2)C1 (single isomer, unassigned) [Compound 139] | 84 | 31 | 95 | 2040 |
| CCc1c(F)ccc2cc(O)cc(-c3ncc4c(N5CCC[C@@](C)(O)C5)nc(OCC5(CN6C[C@@H]7CN(c8cc([C@H](C(=O)N9C[C@H](O)C[C@H]9C(=O)N[C@@H](C)c9ccc(-c%10scnc%10C)cc9)C(C)C)on8)C[C@@H]7C6)CC5)nc4c3F)c12 [Compound 113] | 8.3 | 9.3 | 95 | 49 |
| CCc1c(F)ccc2cc(O)cc(-c3ncc4c(N5CCC[C@@](C)(O)C5)nc(OCC5(CN6CCN(C7CN(c8cc([C@H](C(=O)N9C[C@H](O)C[C@H]9C(=O)N[C@@H](C)c9ccc(-c%10scnc%10C)cc9)C(C)C)on8)C7)CC6)CC5)nc4c3F)c12 [Compound 156] | 9.6 | 9.6 | 95 |  |
| CCc1c(F)ccc2cc(O)cc(-c3ncc4c(N5CCC[C@@](C)(O)C5)nc(OC[C@]56CCCN5[C@@H](COc5cnc(-c7cn([C@H](C(=O)N8C[C@H](O)C[C@H]8C(=O)N[C@@H](C)c8ccc(-c9scnc9C)cc8)C(C)C)nn7)cn5)CC6)nc4c3F)c12 [Compound 159] | 6.2 | 2.3 | 95 |  |
| C=C1CN2[C@H](COc3cc(-c4cn([C@H](C(=O)N5C[C@H](O)C[C@H]5C(=O)N[C@@H](C)c5ccc(-c6scnc6C)cc5)C(C)C)nn4)ccn3)CC[C@@]2(COc2nc(N3CCC[C@@](C)(O)C3)c3cnc(-c4cc(O)cc5ccc(F)c(CC)c45)c(F)c3n2)C1 [Compound 121] | 40 | 30 | 95 |  |
| CCc1c(F)ccc2cc(O)cc(-c3ncc4c(N5CCC[C@@](C)(O)C5)nc(OCCN5CCC(CCOc6cc([C@H](C(=O)N7C[C@H](O)C[C@H]7C(=O)N[C@@H](C)c7ccc(-c8scnc8C)cc7)C(C)C)on6)CC5)nc4c3F)c12 [Compound 79] | 44 | 44 | 95 |  |
| CCc1c(F)ccc2cc(O)cc(-c3ncc4c(N5CCC[C@@](C)(O)C5)nc(OCCN5CCC(COc6ccc(-c7cn([C@H](C(=O)N8C[C@H](O)C[C@H]8C(=O)N[C@@H](C)c8ccc(-c9scnc9C)cc8)C(C)C)nn7)cc6)CC5)nc4c3F)c12 [Compound 67] | 40 | 22 | 78 | 1720 |
| CCc1c(F)ccc2cc(O)cc(-c3ncc4c(N5CCC[C@@](C)(O)C5)nc(OCC5(CN6CCC(c7ccc(-c8cn([C@H](C(=O)N9C[C@H](O)C[C@H]9C(=O)N[C@@H](C)c9ccc(-c%10scnc%10C)cc9)C(C)C)nn8)cn7)CC6)CC5)nc4c3F)c12 [Compound 203] | 11 | 14 | 95 | 47 |
| CCc1c(F)ccc2cc(O)cc(-c3ncc4c(N5CCC[C@@](C)(O)C5)nc(OCCN5CCC(COc6cc([C@H](C(=O)N7C[C@H](O)C[C@H]7C(=O)N[C@@H](C)c7ccc(-c8scnc8C)cc7)C(C)C)on6)CC5)nc4c3F)c12 [Compound 80] | 63 | 40 | 95 |  |
| CCc1c(F)ccc2cc(O)cc(-c3ncc4c(N5CCC[C@@](C)(O)C5)nc(OCC5(CN6CCC(CN7CCN(c8cc([C@H](C(=O)N9C[C@H](O)C[C@H]9C(=O)N[C@@H](C)c9ccc(-c%10scnc%10C)cc9)C(C)C)on8)CC7)CC6)CC5)nc4c3F)c12 [Compound 104] | 39 | 27 | 95 |  |
| CCc1c(F)ccc2cc(O)cc(-c3ncc4c(N5CCC[C@@](C)(O)C5)nc(OCC5(CN6CCN(c7cc([C@H](C(=O)N8C[C@H](O)C[C@H]8C(=O)N[C@@H](C)c8ccc(-c9scnc9C)cc8)C(C)C)on7)CC6)CC5)nc4c3F)c12 [Compound 112] | 57 | 5 | 95 |  |
| CCc1c(F)ccc2cc(O)cc(-c3ncc4c(N5CCC[C@@](C)(O)C5)nc(OCC5(CN6CCC7(CC6)CCN(c6cc([C@H](C(=O)N8C[C@H](O)C[C@H]8C(=O)N[C@@H](C)c8ccc(-c9scnc9C)cc8)C(C)C)on6)CC7)CC5)nc4c3F)c12 [Compound 155, (2S,4R)-1-((R)-2-(3-(9-((1-((7-(8-ethyl-7-fluoro-3-hydroxynaphthalen-1-yl)-8-fluoro-4-((R)-3-hydroxy-3-methylpiperidin-1-yl)pyrido[4,3-d]pyrimidin-2-yl)oxy)methyl)cyclopropyl)methyl)-3,9-diazaspiro[5.5]nonan-3-yl)isoxazol-5-yl)-3-methylbutanoyl)-4-hydroxy-N-((S)-1-(4-(4-(4-methylthiazol-5-yl)phenyl)ethyl)pyrrolidine-2-carboxamide] | 23 | 8.7 | 95 |  |
| CCc1c(F)ccc2cc(O)cc(-c3ncc4c(N5CCC[C@@](C)(O)C5)nc(OCC5(CN6CCN(Cc7cn([C@H](C(=O)N8C[C@H](O)C[C@H]8C(=O)N[C@@H](C)c8ccc(-c9scnc9C)cc8)C(C)C)nn7)CC6)CC5)nc4c3F)c12 [Compound 132] | 25 | 19 | 95 |  |
| CCc1c(F)ccc2cc(O)cc(-c3ncc4c(N5CCC[C@@](C)(O)C5)nc(OCC5(CN6CCC(N7CCC(c8cn([C@H](C(=O)N9C[C@H](O)C[C@H]9C(=O)N[C@@H](C)c9ccc(-c%10scnc%10C)cc9)C(C)C)nn8)CC7)CC6)CC5)nc4c3F)c12 [Compound 137] | 37 | 37 | 95 |  |
| CCc1c(F)ccc2cc(O)cc(-c3ncc4c(N5CCC[C@@](C)(O)C5)nc(OCC5(CN6CCN(CC78CC(c9cn([C@H](C(=O)N%10C[C@H](O)C[C@H]%10C(=O)N[C@@H](C)c%10ccc(-c%11scnc%11C)cc%10)C(C)C)nn9)(C7)C8)CC6)CC5)nc4c3F)c12 [Compound 148] | 15 | 13 | 95 |  |
| CCc1c(F)ccc2cc(O)cc(-c3ncc4c(N5CCC[C@@](C)(O)C5)nc(OCC5(CN6CCC(Nc7ccc(-c8cn([C@H](C(=O)N9C[C@H](O)C[C@H]9C(=O)N[C@@H](C)c9ccc(-c%10scnc%10C)cc9)C(C)C)nn8)cn7)CC6)CC5)nc4c3F)c12 [Compound 152] | 30 | 27 | 95 |  |
| CCc1c(F)ccc2cc(O)cc(-c3ncc4c(N5CCC[C@@](C)(O)C5)nc(OCC5(CN6CCC(N(C)c7ccc(-c8cn([C@H](C(=O)N9C[C@H](O)C[C@H]9C(=O)N[C@@H](C)c9ccc(-c%10scnc%10C)cc9)C(C)C)nn8)cn7)CC6)CC5)nc4c3F)c12 [Compound 154] | 13 | 5.5 | 95 |  |
| CCc1c(F)ccc2cc(O)cc(-c3ncc4c(N5CCC[C@@](C)(O)C5)nc(OC[C@]56CCCN5[C@@H](COc5ccc(-c7cn([C@H](C(=O)N8C[C@H](O)C[C@H]8C(=O)N[C@@H](C)c8ccc(-c9scnc9C)cc8)C(C)C)nn7)cn5)CC6)nc4c3F)c12 [Compound 157] | 19 | 7.7 | 95 |  |
